Measured values published in patent US5519015A, “Carbapenem antibiotic compounds” (Zeneca Limited, priority 1992, dated 1996).
In brackets after ≈: the same amount, converted by molar mass.

Experiments:
Assay type in all cases: cell-based
P. morganii I + 001 = assay: MIC by agar-dilution technique, Diagnostic Sensitivity Test, P. morganii I + 001; settings: Morganella morganii, inoculum 10^4 CFU/spot
From the text: (§1) The following results were obtained for representative compounds on a standard in vitro test system using Diagnostic Sensitivity Test. The antibacterial activity is described in terms of the minimum inhibitory concentration (MIC) determined by the agar-dilution technique with an inoculum size of 10^4 CFU/spot.

S. aureus Oxford = assay: MIC by agar-dilution technique, Diagnostic Sensitivity Test, S. aureus Oxford; settings: Staphylococcus aureus, inoculum 10^4 CFU/spot
From the text: as §1

B. fragilis AMP S = assay: MIC by agar-dilution technique, Diagnostic Sensitivity Test, B. fragilis AMP S; settings: Bacteroides fragilis, inoculum 10^4 CFU/spot
From the text: as §1

[1] = system: Enterobacter cloacae P99-; assay: MIC by agar-dilution technique, Diagnostic Sensitivity Test, Enterobacter cloacae P99-
From the text: as §1

E. coli DCO = assay: MIC by agar-dilution technique, Diagnostic Sensitivity Test, E. coli DCO; settings: Escherichia coli, inoculum 10^4 CFU/spot
From the text: as §1

Structure (SMILES): C[C@@H](O)[C@H]1C(=O)N2C(C(=O)O)=C(S[C@@H]3CN[C@H](C(=O)Nc4csc(C(=O)O)c4)C3)[C@H](C)[C@H]12 [Example 1, (1R,5S,6S,8R,2'S,4'S)-2-(2-(2-Carboxy-4-thienylcarbamoyl)pyrrolidin-4-ylthio)-6-(1-hydroxyethyl)-1-methylcarbapenem-3-carboxylic acid]
- MIC (P. morganii I + 001): 8 ng/mL
- MIC (S. aureus Oxford): 125 ng/mL (≈ 0.26 µM)
- MIC (B. fragilis AMP S): 125 ng/mL (≈ 0.26 µM)
- MIC [1]: 8 ng/mL (≈ 0.0166 µM)
- MIC (E. coli DCO): 8 ng/mL (≈ 0.0166 µM)
